# Assays:
# Experiment in all cases: Herbicidal effect test by soil treatment
# Assay type in all cases: in vivo
# [1] = tested on: annual sedge (Cyperus microiria); settings: three weeks after spraying
# Source text: (§1) In a plastic box of 15 cm length, 22 cm width and 6 cm depth, there was placed a sterilized dilvial soil, and seeds of barnyardgrass (Echinochloa crusgalli), large crabgrass (Digitaria adscendens), annual sedge (Cyperus microiria), black nightshade (Solanum nigrum L.), hairly galinosoga (Galinsoga ciliat), rorippa ssp. (Rorippa atrovirens), rice (Oryza sativa), corn (Zea mays), wheat (Triticum aestivum), soybean (Glysine max) and cotton (Gossypium herbaceum) were sown mixedly. After covering soil to about 1 cm over the seeds, herbicides were sprayed evenly on the soil surface to predetermined proportions of the active ingredient In spraying, the wettable powder, emulsifiable concentrate, dry flowable or flowable in the above formulation examples were diluted with water and sprayed over the entire surface by means of a small sprayer. Three weeks after spraying, the herbicidal effect on crop plants including rice, corn, wheat, soybean, cotton and various kinds of weeds were examined according to the judgement criteria shown below. Judgement criteria
# (§2) The above growth control rates are determined by measuring the top fresh weights of the treated plants and those of the non-treated plants, and culculated from the following formula: [formula]
# [2] = tested on: barnyardgrass (Echinochloa crusgalli); settings: three weeks after spraying
# Source text: as §1, §2
# [3] = tested on: black nightshade (Solanum nigrum L.); settings: three weeks after spraying
# Source text: as §1, §2
# [4] = tested on: corn (Zea mays); settings: crop plant, three weeks after spraying
# Source text: as §1, §2
# [5] = tested on: cotton (Gossypium herbaceum); settings: crop plant, three weeks after spraying
# Source text: as §1, §2
# [6] = tested on: hairly galinosoga (Galinsoga ciliat); settings: three weeks after spraying
# Source text: as §1, §2
# [7] = tested on: large crabgrass (Digitaria adscendens); settings: three weeks after spraying
# Source text: as §1, §2
# [8] = tested on: rice (Oryza sativa); settings: crop plant, three weeks after spraying
# Source text: as §1, §2
# [9] = tested on: rorippa ssp. (Rorippa atrovirens); settings: three weeks after spraying
# Source text: as §1, §2
# [10] = tested on: soybean (Glysine max); settings: crop plant, three weeks after spraying
# Source text: as §1, §2
# [11] = tested on: wheat (Triticum aestivum); settings: crop plant, three weeks after spraying
# Source text: as §1, §2
structure (smiles),measurement,setting,value
CC1CC(=O)N(c2cc3c(cc2F)OCC(=O)N3)C(=O)C1 [1-22],"herbicidal effect, K (Cyperus microiria)",[1]; application amount 1.6 g/a,"5 (Growth control,rates of more than 90% (almost completely withered))"
same,"herbicidal effect, N (Echinochloa crusgalli)",[2]; application amount 1.6 g/a,"5 (Growth control,rates of more than 90% (almost completely withered))"
same,"herbicidal effect, H (Solanum nigrum L.)",[3]; application amount 1.6 g/a,"5 (Growth control,rates of more than 90% (almost completely withered))"
same,"herbicidal effect, T (Zea mays)",[4]; application amount 1.6 g/a,0 (Growth control rates of less than 5% (substantially no effect))
same,"herbicidal effect, C (Gossypium herbaceum)",[5]; application amount 1.6 g/a,0 (Growth control rates of less than 5% (substantially no effect))
same,"herbicidal effect, D (Galinsoga ciliat)",[6]; application amount 1.6 g/a,"5 (Growth control,rates of more than 90% (almost completely withered))"
same,"herbicidal effect, M (Digitaria adscendens)",[7]; application amount 1.6 g/a,"5 (Growth control,rates of more than 90% (almost completely withered))"
same,"herbicidal effect, R (Oryza sativa)",[8]; application amount 1.6 g/a,0 (Growth control rates of less than 5% (substantially no effect))
same,"herbicidal effect, I (Rorippa indica)",[9]; application amount 1.6 g/a,"5 (Growth control,rates of more than 90% (almost completely withered))"
same,"herbicidal effect, S (Glysine max)",[10]; application amount 1.6 g/a,0 (Growth control rates of less than 5% (substantially no effect))
same,"herbicidal effect, W (Triticum vulgare)",[11]; application amount 1.6 g/a,0 (Growth control rates of less than 5% (substantially no effect))
C#CCN1C(=O)COc2cc(F)c(N3C(=O)CC(C)CC3=O)cc21 [1-23],"herbicidal effect, K (Cyperus microiria)",[1]; application amount 0.4 g/a,"5 (Growth control,rates of more than 90% (almost completely withered))"
same,"herbicidal effect, K (Cyperus microiria)",[1]; application amount 0.8 g/a,"5 (Growth control,rates of more than 90% (almost completely withered))"
same,"herbicidal effect, K (Cyperus microiria)",[1]; application amount 1.6 g/a,"5 (Growth control,rates of more than 90% (almost completely withered))"
same,"herbicidal effect, N (Echinochloa crusgalli)",[2]; application amount 0.4 g/a,"5 (Growth control,rates of more than 90% (almost completely withered))"
same,"herbicidal effect, N (Echinochloa crusgalli)",[2]; application amount 0.8 g/a,"5 (Growth control,rates of more than 90% (almost completely withered))"
same,"herbicidal effect, N (Echinochloa crusgalli)",[2]; application amount 1.6 g/a,"5 (Growth control,rates of more than 90% (almost completely withered))"
same,"herbicidal effect, H (Solanum nigrum L.)",[3]; application amount 0.4 g/a,"5 (Growth control,rates of more than 90% (almost completely withered))"
same,"herbicidal effect, H (Solanum nigrum L.)",[3]; application amount 0.8 g/a,"5 (Growth control,rates of more than 90% (almost completely withered))"
same,"herbicidal effect, H (Solanum nigrum L.)",[3]; application amount 1.6 g/a,"5 (Growth control,rates of more than 90% (almost completely withered))"
same,"herbicidal effect, T (Zea mays)",[4]; application amount 0.4 g/a,4 (Growth control rates of 70 to 90%)
same,"herbicidal effect, T (Zea mays)",[4]; application amount 0.8 g/a,"5 (Growth control,rates of more than 90% (almost completely withered))"
same,"herbicidal effect, T (Zea mays)",[4]; application amount 1.6 g/a,"5 (Growth control,rates of more than 90% (almost completely withered))"
same,"herbicidal effect, C (Gossypium herbaceum)",[5]; application amount 0.4 g/a,2 (Growth control rates of 20 to 40%)
same,"herbicidal effect, C (Gossypium herbaceum)",[5]; application amount 0.8 g/a,3 (Growth control rates of 40 to 70%)
same,"herbicidal effect, C (Gossypium herbaceum)",[5]; application amount 1.6 g/a,4 (Growth control rates of 70 to 90%)
same,"herbicidal effect, D (Galinsoga ciliat)",[6]; application amount 0.4 g/a,"5 (Growth control,rates of more than 90% (almost completely withered))"
same,"herbicidal effect, D (Galinsoga ciliat)",[6]; application amount 0.8 g/a,"5 (Growth control,rates of more than 90% (almost completely withered))"
same,"herbicidal effect, D (Galinsoga ciliat)",[6]; application amount 1.6 g/a,"5 (Growth control,rates of more than 90% (almost completely withered))"
same,"herbicidal effect, M (Digitaria adscendens)",[7]; application amount 0.4 g/a,"5 (Growth control,rates of more than 90% (almost completely withered))"
same,"herbicidal effect, M (Digitaria adscendens)",[7]; application amount 0.8 g/a,"5 (Growth control,rates of more than 90% (almost completely withered))"
same,"herbicidal effect, M (Digitaria adscendens)",[7]; application amount 1.6 g/a,"5 (Growth control,rates of more than 90% (almost completely withered))"
same,"herbicidal effect, R (Oryza sativa)",[8]; application amount 0.4 g/a,2 (Growth control rates of 20 to 40%)
same,"herbicidal effect, R (Oryza sativa)",[8]; application amount 0.8 g/a,3 (Growth control rates of 40 to 70%)
same,"herbicidal effect, R (Oryza sativa)",[8]; application amount 1.6 g/a,"5 (Growth control,rates of more than 90% (almost completely withered))"
same,"herbicidal effect, I (Rorippa indica)",[9]; application amount 0.4 g/a,"5 (Growth control,rates of more than 90% (almost completely withered))"
same,"herbicidal effect, I (Rorippa indica)",[9]; application amount 0.8 g/a,"5 (Growth control,rates of more than 90% (almost completely withered))"
same,"herbicidal effect, I (Rorippa indica)",[9]; application amount 1.6 g/a,"5 (Growth control,rates of more than 90% (almost completely withered))"
same,"herbicidal effect, S (Glysine max)",[10]; application amount 0.4 g/a,0 (Growth control rates of less than 5% (substantially no effect))
same,"herbicidal effect, S (Glysine max)",[10]; application amount 0.8 g/a,1 (Growth control rates of 5 to 20%)
same,"herbicidal effect, S (Glysine max)",[10]; application amount 1.6 g/a,2 (Growth control rates of 20 to 40%)
same,"herbicidal effect, W (Triticum vulgare)",[11]; application amount 0.4 g/a,4 (Growth control rates of 70 to 90%)
same,"herbicidal effect, W (Triticum vulgare)",[11]; application amount 0.8 g/a,"5 (Growth control,rates of more than 90% (almost completely withered))"
same,"herbicidal effect, W (Triticum vulgare)",[11]; application amount 1.6 g/a,"5 (Growth control,rates of more than 90% (almost completely withered))"
O=C1COc2cc(F)c(N3C(=O)CC(C(F)(F)F)CC3=O)cc2N1 [1-25],"herbicidal effect, K (Cyperus microiria)",[1]; application amount 1.6 g/a,"5 (Growth control,rates of more than 90% (almost completely withered))"
same,"herbicidal effect, N (Echinochloa crusgalli)",[2]; application amount 1.6 g/a,"5 (Growth control,rates of more than 90% (almost completely withered))"
same,"herbicidal effect, H (Solanum nigrum L.)",[3]; application amount 1.6 g/a,"5 (Growth control,rates of more than 90% (almost completely withered))"
same,"herbicidal effect, T (Zea mays)",[4]; application amount 1.6 g/a,0 (Growth control rates of less than 5% (substantially no effect))
same,"herbicidal effect, C (Gossypium herbaceum)",[5]; application amount 1.6 g/a,1 (Growth control rates of 5 to 20%)
same,"herbicidal effect, D (Galinsoga ciliat)",[6]; application amount 1.6 g/a,"5 (Growth control,rates of more than 90% (almost completely withered))"
same,"herbicidal effect, M (Digitaria adscendens)",[7]; application amount 1.6 g/a,"5 (Growth control,rates of more than 90% (almost completely withered))"
same,"herbicidal effect, R (Oryza sativa)",[8]; application amount 1.6 g/a,1 (Growth control rates of 5 to 20%)
same,"herbicidal effect, I (Rorippa indica)",[9]; application amount 1.6 g/a,"5 (Growth control,rates of more than 90% (almost completely withered))"
same,"herbicidal effect, S (Glysine max)",[10]; application amount 1.6 g/a,0 (Growth control rates of less than 5% (substantially no effect))
same,"herbicidal effect, W (Triticum vulgare)",[11]; application amount 1.6 g/a,0 (Growth control rates of less than 5% (substantially no effect))

# — patent EP0454444A1, “Glutarimide derivatives and herbicides” (NISSAN CHEMICAL INDUSTRIES LTD., priority 1990, dated 1991)
